Test results from ChEMBL document CHEMBL3045949, “Antifeedant and toxic effects of naturally occurring and synthetic quinones to the cabbage looper, Trichoplusia ni” (Crop Prot, 2012).

Legend:
[1] = tested on: Trichoplusia ni; assay: Toxicity against Trichoplusia ni (cabbage looper) third-instar larvae stage assessed as mortality at 10 ug/ml for 24 hr by topical application; assay type: functional
[2] = tested on: Trichoplusia ni; assay: Antifeedant activity against Trichoplusia ni (cabbage looper) third-instar larvae stage assessed as concentrations causing 50% feeding deterrence by feeding deterrent bioassay; assay type: functional, organism-based
[3] = tested on: Trichoplusia ni; assay: Antifeedant activity against Trichoplusia ni (cabbage looper) third-instar larvae stage assessed as feeding deterrence index at 50 microg/cm'2 by feeding deterrent bioassay; assay type: functional
[4] = tested on: Trichoplusia ni; assay: Protection of intact cabbage plants from Trichoplusia ni (cabbage looper) measured as reduction in weight of larvae by lopper in green house for 10 days (reference value: 33.8 mg); assay type: functional
[5] = tested on: Trichoplusia ni; assay: Protection of intact cabbage plants from Trichoplusia ni (cabbage looper) measured as leaf area consumed by lopper in green house for 10 days (reference value: 8.5 cm'2); assay type: functional

SMILES | mortality at 10 µg/mL [1] [%] | DC50 [2] [microg/cm2] | FDI [3] [%] | Activity [4] [mg] | Activity [5] [cm2]
O=C1C=Cc2ccccc2C1=O [1,2-NAPHTHOQUINONE] | 3.3 | 1.8 | 100 | – | –
O=C1c2ccccc2C(=O)c2c(O)cccc21 [1-HYDROXYANTHRAQUINONE] | 10 | – | -41.5 | – | –
c1ccc2c(c1)ccc1cccnc12 [1-NAPHTHOQUINOLINE] | 10 | 16.4 | 75.7 | – | –
O=C1C(Br)=C(Br)C(=O)c2ccccc21 [2,3-Dibromo-1,4-naphthoquinone] | 10 | 26.4 | 100 | – | –
O=C1C=C(Br)C(=O)c2ccccc21 [2-Bromo-1,4-naphthoquinone] | 15 | 8.4 | 80.7 | – | –
O=C1C(Cl)=C(N2CCOCC2)C(=O)c2ccccc21 [2-Chloro-3-morpholino-1,4-naphthoquinone] | 12 | 9.7 | 100 | – | –
COC1=CC(=O)c2ccccc2C1=O [2-Methoxy-1,4-naphthoquinone] | 8 | 2.6 | 96.8 | – | –
O=C1C(=O)c2ccccc2-c2ccccc21 [9,10-PHENANTHRENEQUINONE] | 10 | – | -15.4 | – | –
O=C1c2cccc(O)c2C(=O)c2cccc(O)c21 [ANTHRARUFIN] | 15 | – | -58.6 | – | –
O=C1C=CC(=O)C=C1 [BENZOQUINONE] | – | – | 17.8 | – | –
O=C1C(Cl)=C(Cl)C(=O)C(Cl)=C1Cl [CHLORANIL] | 10 | – | 35.8 | – | –
O=C1c2cccc(O)c2C(=O)c2c(O)cccc21 [DANTHRON] | 12 | 9.2 | 86.2 | – | –
CC1=C(Br)C(=O)C(C(C)C)=C(Br)C1=O [Dibromothymoquinone] | 5 | – | 42.2 | – | –
O=C1C(Cl)=C(Cl)C(=O)c2ccccc21 [Dichlon] | 8 | – | 39.8 | – | –
Cc1cc(O)c2c(c1)C(=O)c1cc(O)cc(O)c1C2=O [EMODIN] | 10 | – | 22.1 | – | –
O=C1C=CC(=O)c2c(O)cccc21 [JUGLONE] | 5 | 2.1 | 100 | 8.1 | 1.7
CC(C)=CCC1=C(O)C(=O)c2ccccc2C1=O [LAPACHOL] | 10 | – | 9.1 | – | –
CC1=CC(=O)c2ccccc2C1=O [MENADIONE] | 13 | 6.3 | 100 | – | –
O=C1C=CC(=O)c2c(O)ccc(O)c21 [NAPHTHAZALIN] | 20 | 10.1 | 100 | – | –
CC1=CC(=O)c2c(O)cccc2C1=O [PLUMBAGIN] | 7 | 3.3 | 100 | 12.7 | 3.5
CC1=CC(=O)C(C(C)C)=CC1=O [THYMOQUINONE] | 26.7 | 19.3 | 100 | – | –
COC1=C(OC)C(=O)C(C)=CC1=O [Ubiquinone Qo] | 23.3 | 4.2 | 86.7 | – | –
